# ChEMBL document CHEMBL3885881, “DrugMatrix”
# Species on record: Rattus norvegicus
# Test: DrugMatrix - Regimen: Daily Repeat
# Assay type: toxicity, organism-based, Sprague-Dawley
# Parameters: regimen Daily Repeat, gender Male, age 6-8 weeks
# Details: in vivo, po, route oral GAVAGE, vehicle 100 % WATER; for ABSOLUTE BASOPHIL / ABSOLUTE EOSINOPHIL / ABSOLUTE LYMPHOCYTE / ABSOLUTE MONOCYTE / ABSOLUTE SEGMENTED NEUTROPHIL / BASOPHIL / EOSINOPHIL / ERYTHROCYTE COUNT / HEMATOCRIT / HEMOGLOBIN / LEUKOCYTE COUNT / LYMPHOCYTE / MEAN CORPUSCULAR HEMOGLOBIN / MEAN CORPUSCULAR HEMOGLOBIN CONCENTRATION / MEAN CORPUSCULAR VOLUME / MONOCYTE / NEUTROPHIL / NUCLEATED RED BLOOD CELLS / PLATELET COUNT: tissue Blood; for ALANINE AMINOTRANSFERASE / ALBUMIN / ALKALINE PHOSPHATASE / ASPARTATE AMINOTRANSFERASE / BLOOD UREA NITROGEN / CARBON DIOXIDE / CHLORIDE / CHOLESTEROL / CREATINE PHOSPHOKINASE / CREATININE / GLUCOSE / LACTATE DEHYDROGENASE / LIPASE / PHOSPHORUS / POTASSIUM / SODIUM / TOTAL BILIRUBIN / TOTAL PROTEIN / URIC ACID: tissue Plasma
# [1] = 0 mg/kg, 72 h, dose level Control, time 3 day
# [2] = 0 mg/kg, 120 h, dose level Control, time 5 day
# [3] = 30 mg/kg, 72 h, dose level Low, time 3 day
# [4] = 30 mg/kg, 120 h, dose level Low, time 5 day
compound,measurement,setting,value
COc1cccc(C2(O)CCCCC2CN(C)C)c1 (configuration not stated) [TRAMADOL],ABSOLUTE BASOPHIL,[1],0 CELLS/uL
same,ABSOLUTE EOSINOPHIL,[1],32.5 CELLS/uL
same,ABSOLUTE LYMPHOCYTE,[1],9305.83 CELLS/uL
same,ABSOLUTE MONOCYTE,[1],43.83 CELLS/uL
same,ABSOLUTE SEGMENTED NEUTROPHIL,[1],817.83 CELLS/uL
same,BASOPHIL,[1],0%
same,EOSINOPHIL,[1],0.33%
same,ERYTHROCYTE COUNT,[1],5.38 x10E6/uL
same,HEMATOCRIT,[1],33.63%
same,HEMOGLOBIN,[1],13.17 G/DL
same,LEUKOCYTE COUNT,[1],10.2 x10E3/uL
same,LYMPHOCYTE,[1],91.17%
same,MEAN CORPUSCULAR HEMOGLOBIN,[1],24.5 pg
same,MEAN CORPUSCULAR HEMOGLOBIN CONCENTRATION,[1],39.13 G/DL
same,MEAN CORPUSCULAR VOLUME,[1],62.53 fL
same,MONOCYTE,[1],0.5%
same,NEUTROPHIL,[1],8%
same,NUCLEATED RED BLOOD CELLS,[1],0.17 /100WBC
same,PLATELET COUNT,[1],858 x10E3/uL
same,ALANINE AMINOTRANSFERASE,[1],55.67 u/L
same,ALBUMIN,[1],4.07 G/DL
same,ALKALINE PHOSPHATASE,[1],337 u/L
same,ASPARTATE AMINOTRANSFERASE,[1],84 u/L
same,BLOOD UREA NITROGEN,[1],13.17 mg/dL
same,CARBON DIOXIDE,[1],34.17 mmol/L
same,CHLORIDE,[1],99.33 MEQ/L
same,CHOLESTEROL,[1],78.83 mg/dL
same,CREATINE PHOSPHOKINASE,[1],576.83 u/L
same,CREATININE,[1],0.17 mg/dL
same,GLUCOSE,[1],152.67 mg/dL
same,LACTATE DEHYDROGENASE,[1],147.83 u/L
same,LIPASE,[1],9.5 u/L
same,PHOSPHORUS,[1],10.78 mg/dL
same,POTASSIUM,[1],6.34 MEQ/L
same,SODIUM,[1],144.12 MEQ/L
same,TOTAL BILIRUBIN,[1],0.18 mg/dL
same,TOTAL PROTEIN,[1],6.08 G/DL
same,URIC ACID,[1],0.65 mg/dL
same,ABSOLUTE BASOPHIL,[2],0 CELLS/uL
same,ABSOLUTE EOSINOPHIL,[2],31.17 CELLS/uL
same,ABSOLUTE LYMPHOCYTE,[2],7918.33 CELLS/uL
same,ABSOLUTE MONOCYTE,[2],58.33 CELLS/uL
same,ABSOLUTE SEGMENTED NEUTROPHIL,[2],725.5 CELLS/uL
same,BASOPHIL,[2],0%
same,EOSINOPHIL,[2],0.33%
same,ERYTHROCYTE COUNT,[2],5.32 x10E6/uL
same,HEMATOCRIT,[2],33.53%
same,HEMOGLOBIN,[2],13.17 G/DL
same,LEUKOCYTE COUNT,[2],8.73 x10E3/uL
same,LYMPHOCYTE,[2],90.33%
same,MEAN CORPUSCULAR HEMOGLOBIN,[2],24.82 pg
same,MEAN CORPUSCULAR HEMOGLOBIN CONCENTRATION,[2],39.33 G/DL
same,MEAN CORPUSCULAR VOLUME,[2],63.12 fL
same,MONOCYTE,[2],0.67%
same,NEUTROPHIL,[2],8.67%
same,NUCLEATED RED BLOOD CELLS,[2],0 /100WBC
same,PLATELET COUNT,[2],1144.83 x10E3/uL
same,ALANINE AMINOTRANSFERASE,[2],60.5 u/L
same,ALBUMIN,[2],3.97 G/DL
same,ALKALINE PHOSPHATASE,[2],343.17 u/L
same,ASPARTATE AMINOTRANSFERASE,[2],80.83 u/L
same,BLOOD UREA NITROGEN,[2],15 mg/dL
same,CARBON DIOXIDE,[2],31 mmol/L
same,CHLORIDE,[2],99.75 MEQ/L
same,CHOLESTEROL,[2],71.5 mg/dL
same,CREATINE PHOSPHOKINASE,[2],237.17 u/L
same,CREATININE,[2],0.17 mg/dL
same,GLUCOSE,[2],137 mg/dL
same,LACTATE DEHYDROGENASE,[2],146.17 u/L
same,LIPASE,[2],11.5 u/L
same,PHOSPHORUS,[2],10.13 mg/dL
same,POTASSIUM,[2],6 MEQ/L
same,SODIUM,[2],145 MEQ/L
same,TOTAL BILIRUBIN,[2],0.13 mg/dL
same,TOTAL PROTEIN,[2],5.82 G/DL
same,URIC ACID,[2],0.62 mg/dL
same,ABSOLUTE BASOPHIL,[3],0 CELLS/uL
same,ABSOLUTE EOSINOPHIL,[3],0 CELLS/uL
same,ABSOLUTE LYMPHOCYTE,[3],6045 CELLS/uL
same,ABSOLUTE MONOCYTE,[3],124.33 CELLS/uL
same,ABSOLUTE SEGMENTED NEUTROPHIL,[3],697.33 CELLS/uL
same,BASOPHIL,[3],0%
same,EOSINOPHIL,[3],0%
same,ERYTHROCYTE COUNT,[3],5.35 x10E6/uL
same,HEMATOCRIT,[3],33.3%
same,HEMOGLOBIN,[3],13.03 G/DL
same,LEUKOCYTE COUNT,[3],6.87 x10E3/uL
same,LYMPHOCYTE,[3],88.33%
same,MEAN CORPUSCULAR HEMOGLOBIN,[3],24.4 pg
same,MEAN CORPUSCULAR HEMOGLOBIN CONCENTRATION,[3],39.13 G/DL
same,MEAN CORPUSCULAR VOLUME,[3],62.23 fL
same,MONOCYTE,[3],1.67%
same,NEUTROPHIL,[3],10%
same,NUCLEATED RED BLOOD CELLS,[3],0.67 /100WBC
same,PLATELET COUNT,[3],1017 x10E3/uL
same,ALANINE AMINOTRANSFERASE,[3],47.33 u/L
same,ALBUMIN,[3],4.13 G/DL
same,ALKALINE PHOSPHATASE,[3],434.67 u/L
same,ASPARTATE AMINOTRANSFERASE,[3],82.67 u/L
same,BLOOD UREA NITROGEN,[3],12.33 mg/dL
same,CARBON DIOXIDE,[3],34.67 mmol/L
same,CHLORIDE,[3],99.67 MEQ/L
same,CHOLESTEROL,[3],72.33 mg/dL
same,CREATINE PHOSPHOKINASE,[3],347.67 u/L
same,CREATININE,[3],0.16 mg/dL
same,GLUCOSE,[3],136.33 mg/dL
same,LACTATE DEHYDROGENASE,[3],123.33 u/L
same,LIPASE,[3],9.33 u/L
same,PHOSPHORUS,[3],11 mg/dL
same,POTASSIUM,[3],6.23 MEQ/L
same,SODIUM,[3],144.43 MEQ/L
same,TOTAL BILIRUBIN,[3],0.2 mg/dL
same,TOTAL PROTEIN,[3],5.93 G/DL
same,URIC ACID,[3],0.8 mg/dL
same,ABSOLUTE BASOPHIL,[4],0 CELLS/uL
same,ABSOLUTE EOSINOPHIL,[4],97.33 CELLS/uL
same,ABSOLUTE LYMPHOCYTE,[4],8968.67 CELLS/uL
same,ABSOLUTE MONOCYTE,[4],0 CELLS/uL
same,ABSOLUTE SEGMENTED NEUTROPHIL,[4],967.33 CELLS/uL
same,BASOPHIL,[4],0%
same,EOSINOPHIL,[4],1%
same,ERYTHROCYTE COUNT,[4],5.45 x10E6/uL
same,HEMATOCRIT,[4],35.3%
same,HEMOGLOBIN,[4],13.57 G/DL
same,LEUKOCYTE COUNT,[4],10.03 x10E3/uL
same,LYMPHOCYTE,[4],88.67%
same,MEAN CORPUSCULAR HEMOGLOBIN,[4],24.87 pg
same,MEAN CORPUSCULAR HEMOGLOBIN CONCENTRATION,[4],38.47 G/DL
same,MEAN CORPUSCULAR VOLUME,[4],64.67 fL
same,MONOCYTE,[4],0%
same,NEUTROPHIL,[4],10.33%
same,NUCLEATED RED BLOOD CELLS,[4],0 /100WBC
same,PLATELET COUNT,[4],1078.67 x10E3/uL
same,ALANINE AMINOTRANSFERASE,[4],45 u/L
same,ALBUMIN,[4],4.03 G/DL
same,ALKALINE PHOSPHATASE,[4],395 u/L
same,ASPARTATE AMINOTRANSFERASE,[4],72 u/L
same,BLOOD UREA NITROGEN,[4],13 mg/dL
same,CARBON DIOXIDE,[4],30.67 mmol/L
same,CHLORIDE,[4],99 MEQ/L
same,CHOLESTEROL,[4],69.33 mg/dL
same,CREATINE PHOSPHOKINASE,[4],188 u/L
same,CREATININE,[4],0.17 mg/dL
same,GLUCOSE,[4],143.67 mg/dL
same,LACTATE DEHYDROGENASE,[4],113.33 u/L
same,LIPASE,[4],9.33 u/L
same,PHOSPHORUS,[4],11.2 mg/dL
same,POTASSIUM,[4],6.21 MEQ/L
same,SODIUM,[4],144.27 MEQ/L
same,TOTAL BILIRUBIN,[4],0.2 mg/dL
same,TOTAL PROTEIN,[4],5.8 G/DL
same,URIC ACID,[4],1.2 mg/dL
